{"source": "patent US20060154891A1", "about": "“Ready-to-use gemcitabine solutions and gemcitabin concentrates” (priority 2004, published 2006)", "key": {"[1]": {"conditions": "room temperature; strong, aqueous hydrochloric acid solution, pH approximately 3, reconstituted Gemzar lyophilisate; cited from earlier work"}, "[2]": {"experiment": "Concentration at which gemcitabine hydrochloride forms a clear solution at room temperature", "assay_type": "physicochemical", "procedure": "At room temperature, gemcitabine hydrochloride forms a clear solution at a concentration of about 40 mg/milliliter in a strong, aqueous hydrochloric acid solution (pH approximately 3, reconstituted Gemzar® lyophilisate, Eli Lilly) or at a concentration of about 15 mg/mL in an aqueous, weakly alkaline solution having a pH of about 8, and at a concentration of up to 110 mg/mL in an alkaline, ethanolic, aqueous solution with a pH of approximately 10."}, "[3]": {"conditions": "pH range from 3 to 10 investigated; EP 1 479 389 A1; cited from earlier work"}}, "note": "Counter-ions that a name gives are not always drawn. Like-named read-outs stand apart in the source and are kept apart here."}
{"smiles": "Nc1ccn([C@@H]2O[C@H](CO)[C@@H](O)C2(F)F)c(=O)n1", "note": "[gemcitabine hydrochloride]", "values": [{"measurement": "Concentration forming a clear solution", "setting": "[1]", "value": "about 40 mg/milliliter"}, {"measurement": "Concentration forming a clear solution", "setting": "[2]; alkaline, ethanolic, aqueous solution, pH of approximately 10", "value": "up to 110 mg/mL"}, {"measurement": "Concentration forming a clear solution", "setting": "[2]; aqueous, weakly alkaline solution, pH of about 8", "value": "about 15 mg/mL"}]}
{"smiles": "Nc1ccn([C@@H]2O[C@H](CO)[C@@H](O)C2(F)F)c(=O)n1", "note": "[gemcitabine, 2′-deoxy-2′,2′-difluorocytidine]", "values": [{"measurement": "pH described as optimum for stability in aqueous solution", "setting": "[3]", "value": "about 8"}]}
